The results in this text go back to patent US20130004481A1, “ANTICANCER THERAPY” (BOEHRINGER INGELHEIM INTERNATIONAL GMBH, priority 2011, published 2013).

This assay concerns the target T1, wild type (wt)-Xenopus laevis Aurora B/INCENP complex (Xenopus laevis, UniProt Q6DE08).
T1 construct: Purified (wt)-Xenopus laevis Aurora B^60-361/INCENP^790-847 complex was stored at −80° C; GST (cleaved yes); made in house; host or cells: E. coli BL21(DE3) with pUBS520 helper plasmid
Nature of the assay: Radioactive kinase assay using wt Xenopus laevis Aurora B/INCENP complex. It is filed as biochemical. The note with it: 100 μM ATP.

T1 sequence (Q6DE08 60-361): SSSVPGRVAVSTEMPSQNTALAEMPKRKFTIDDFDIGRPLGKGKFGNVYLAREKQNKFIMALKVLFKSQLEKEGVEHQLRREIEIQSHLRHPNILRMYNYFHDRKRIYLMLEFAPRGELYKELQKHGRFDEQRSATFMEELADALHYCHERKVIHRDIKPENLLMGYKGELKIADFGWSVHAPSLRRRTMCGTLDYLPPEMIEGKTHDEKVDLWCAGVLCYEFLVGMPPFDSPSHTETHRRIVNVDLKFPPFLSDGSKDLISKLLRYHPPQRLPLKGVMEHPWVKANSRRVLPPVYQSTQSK
T1 sequence (O13024 790-847 partner limits assumed): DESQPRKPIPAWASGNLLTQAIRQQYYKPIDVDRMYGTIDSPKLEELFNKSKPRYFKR
Method: Radioactive Kinase Assay Using a Wild Type (wt)-Xenopus laevis Aurora B/INCENP Complex:
The kinase assays are run in the presence of 100 μM ATP using 10 μM of a substrate peptide. pAUB-IN847 was used to transform the E. coli strain BL21(DE3) containing the pUBS520 helper plasmid. Both proteins and their mutants are expressed and purified under essentially identical conditions. Protein expression is induced with 0.3 mM IPTG at an OD600 of 0.45-0.7. Expression is then continued for about 12-16 hours at 23-25° C. with agitation. […] 20-30 ml lysis buffer are used per liter of E. coli culture. Cells are lysed by sonication, and the lysates cleared by centrifugation at 12000 rpm for 45-60 min on a JA20 rotor. The supernatants are incubated with 300 μl of GST Sepharose Fast Flow (Amersham Biosciences) per liter of bacterial culture. The resin is first washed with PBS buffer and finally equilibrated with lysis buffer. After a 4-5 hour agitation at 4° C., the beads are washed with 30 volumes of lysis buffer, and then equilibrated with 30 volumes of cleavage buffer (50 mM Tris pH 7.6, 150 mM NaCl, 1 mM DTT, 1 mM EDTA). To cleave the GST from Aurora B, 10 units of Prescission protease (Amersham Biosciences) per milligram of substrate are added and the incubation is protracted for 16 hours at 4° C. The supernatant, which contains the cleaved product, is collected and loaded onto a 6 ml Resource Q column (Amersham Biosciences) equilibrated with Ion Exchange buffer (50 mM Tris pH 7.6, 150 mM NaCl, 1 mM DTT, 1 mM EDTA). The Aurora B/INCENP complex is collected in the flow through of the column. The flow-through of the Resource Q column is concentrated and loaded onto a Superdex 200 size-exclusion chromatography (SEC) column equilibrated with SEC buffer (Tris HCl 10 mM pH 7.6, NaCl 150 mM, DTT 1 mM, EDTA 1 mM). […] The final yield is about 1-2 mg of pure complex per liter of bacteria.
Assay conditions: Enzyme activity was assayed in the presence or absence of serial inhibitor dilutions.
Data analysis: Inhibitor concentrations were transformed to logarithmic values and the raw data were normalized. These normalized values were used to calculate the IC50 values. […] Each microtiter plate contained internal controls, such as blank, maximum reaction and historical reference compound.

As to `CCNC(=O)C#Cc1ccc2c(c1)NC(=O)/C2=C(\Nc1ccc(N2CCN(C)CC2)cc1)c1ccccc1` [Compound 1, N-ethyl-3-[3-[[4-(4-methylpiperazin-1-yl)anilino]-phenylmethylidene]-2-oxo-1H-indol-6-yl]prop-2-ynamide], the IC50 amounted to 2 nM. For `CN(C)Cc1ccc(N/C(=C2\C(=O)Nc3cc(C#CC(=O)NCC(F)F)ccc32)c2ccccc2)cc1` [Compound 2, N-(2,2-difluoroethyl)-3-[3-[[4-(dimethylaminomethyl)anilino]-phenylmethylidene]-2-oxo-1H-indol-6-yl]prop-2-ynamide], the IC50 was determined as 7 nM. `O=C(C#Cc1ccc2c(c1)NC(=O)/C2=C(\Nc1ccc(CN2CCCC2)cc1)c1ccccc1)NCC(F)F` [Compound 3, N-(2,2-difluoroethyl)-3-[2-oxo-3-[phenyl-[4-(pyrrolidin-1-ylmethyl)anilino]methylidene]-1H-indol-6-yl]prop-2-ynamide]: the IC50 came out at 4 nM. As for `O=C(C#Cc1ccc2c(c1)NC(=O)/C2=C(\Nc1ccc(CN2CCCC2)cc1)c1ccccc1)NCCF` [Compound 4, N-(2-fluoroethyl)-3-[2-oxo-3-[phenyl-[4-(pyrrolidin-1-ylmethyl)anilino]methylidene]-1H-indol-6-yl]prop-2-ynamide], the IC50 amounted to 5 nM. For `CCNC(=O)C#Cc1ccc2c(c1)NC(=O)/C2=C(\Nc1ccc(CN(C)C)cc1)c1ccccc1` [Compound 6, 3-[3-[[4-(dimethylaminomethyl)anilino]-phenylmethylidene]-2-oxo-1H-indol-6-yl]-N-ethylprop-2-ynamide], the IC50 is 3 nM.
